Measured values reported in patent US20160212997A1, “AGRICULTURAL CHEMICALS” (REDAG CROP PROTECTION LTD, priority 2013, published 2016).
Read-outs that look alike come from different tables or passages of the source.

Key:
aphids, Myzus persicae = experiment: Potter tower spray on aphids, knockdown and mortality; format: in vivo; conditions: Myzus persicae, read-out: Average of % corrected affected
Text: The compounds were screened for insecticidal efficacy against aphids, Myzus persicae, Cabbage moth, Mamestra brassicae, diamond black moths, Plutella xylostella, red spider mites, Tetranychus urticae, whitefly, Trialeurodes vaporariorum, in terms of knockdown and mortality.
(§1) Myzus persicae, Cabbage moth, Mamestra brassicae, diamond back moths, Plutella xylostella, red spider mites, Tetranychus urticae, whitefly, Trialeurodes vaporariorum, were obtained from specified laboratory cultures. Mixed sex and age aphids and mites, moth larvae and whitefly scale infested leaves were used in the experiments. Environmental conditions were closely monitored and recorded and were within the optimal range of the target species.
(§2) The compounds were screened at a range of five concentrations, diluted in DMSO. Some of the compounds were screened against aphids, whitefly and red spider mites and other compounds were screened against cabbage moth, and diamond black moths. A carrier only and an untreated control will also be conducted. Treatments were applied directly onto the insects within Petri dishes, using a potter tower.
(§3) Twenty mites and ten aphids, scales and moth larvae were placed within a Petri dish, lined with a suitable leaf disc on a damp cotton wool pad. Scales were already on leaves. The Petri dishes were then sprayed using a potter tower. The number of knocked down and anthropods were assessed at 24 and 48 hours post treatment. Five replicates were be performed for each treatment, for each species.
(§4) For Tables 2, 4, 5 and 6, the compounds were diluted in DMSO containing 1% v/v Tween 20™. For Tables 2, 4, 5 and 6, the caterpillars were a mixture of Mamestra brassicae and Lacanobia oleracea.

[1] = system: caterpillars, a mixture of Mamestra brassicae and Lacanobia oleracea; experiment: Potter tower spray on caterpillars, knockdown and mortality; format: in vivo; conditions: read-out: Average of % corrected affected
Text: as §1, §2, §3, §4

## Cc1cc(C2=NOC(c3cc(Cl)cc(Cl)c3)(C(F)(F)F)C2)ccc1SCC(=O)NCC(F)(F)F (stereo not drawn) [Compound 15, 2-[4-[5-(3,5-dichlorophenyl)-5-(trifluoromethyl)-4H-isoxazol-3-yl]-2-methyl-phenyl]sulfanyl-N-(2,2,2-trifluoroethyl)acetamide, reference compound]
aphids, Myzus persicae; 24 h
  pest or weed control at 0.000125 % strength: 1 to 19%
  pest or weed control at 0.00025 % strength: 1 to 19%
  pest or weed control at 0.0005 % strength: 1 to 19%
  pest or weed control at 0.001 % strength: 1 to 19%
  pest or weed control at 0.002 % strength: 0%
aphids, Myzus persicae; 48 h
  pest or weed control at 0.000125 % strength: 1 to 19%
  pest or weed control at 0.00025 % strength: 1 to 19%
  pest or weed control at 0.0005 % strength: 1 to 19%
  pest or weed control at 0.001 % strength: 20 to 39%
  pest or weed control at 0.002 % strength: 20 to 39%
[1]; 24 h
  pest or weed control at 0.000125 % strength: 1 to 19%
  pest or weed control at 0.00025 % strength: 1 to 19%
  pest or weed control at 0.0005 % strength: 1 to 19%
  pest or weed control at 0.001 % strength: 1 to 19%
  pest or weed control at 0.002 % strength: 1 to 19%
[1]; 48 h
  pest or weed control at 0.000125 % strength: 0%
  pest or weed control at 0.00025 % strength: 1 to 19%
  pest or weed control at 0.0005 % strength: 1 to 19%
  pest or weed control at 0.001 % strength: 1 to 19%
  pest or weed control at 0.002 % strength: 1 to 19%

## Cc1cc(C2=NCC(c3cc(Cl)cc(Cl)c3)(C(F)(F)F)O2)ccc1SCC(=O)NCC(F)(F)F (stereo not drawn) [Compound 18, 2-[4-[5-(3,5-dichlorophenyl)-5-(trifluoromethyl)-4H-oxazol-2-yl]-2-methyl-phenyl]sulfanyl-N-(2,2,2-trifluoroethyl)acetamide]
aphids, Myzus persicae; 24 h, Aphids, 0.000125 % w/v, 24 hours post application
  pest or weed control at 0.000125 % strength: 1 to 19%
aphids, Myzus persicae; 24 h, Aphids, 0.00025 % w/v, 24 hours post application
  pest or weed control at 0.00025 % strength: 1 to 19%
aphids, Myzus persicae; 24 h, Aphids, 0.0005 % w/v, 24 hours post application
  pest or weed control at 0.0005 % strength: 1 to 19%
aphids, Myzus persicae; 24 h, Aphids, 0.001 % w/v, 24 hours post application
  pest or weed control at 0.001 % strength: 1 to 19%
aphids, Myzus persicae; 24 h, Aphids, 0.002 % w/v, 24 hours post application
  pest or weed control at 0.002 % strength: 1 to 19%
aphids, Myzus persicae; 48 h, Aphids, 0.000125 % w/v, 48 hours post application
  pest or weed control at 0.000125 % strength: 1 to 19%
aphids, Myzus persicae; 48 h, Aphids, 0.00025 % w/v, 48 hours post application
  pest or weed control at 0.00025 % strength: 1 to 19%
aphids, Myzus persicae; 48 h, Aphids, 0.0005 % w/v, 48 hours post application
  pest or weed control at 0.0005 % strength: 1 to 19%
aphids, Myzus persicae; 48 h, Aphids, 0.001 % w/v, 48 hours post application
  pest or weed control at 0.001 % strength: 1 to 19%
aphids, Myzus persicae; 48 h, Aphids, 0.002 % w/v, 48 hours post application
  pest or weed control at 0.002 % strength: 1 to 19%
[1]; 24 h, Caterpillars, 0.000125 % w/v, 24 hours post application
  pest or weed control at 0.000125 % strength: 1 to 19%
[1]; 24 h, Caterpillars, 0.00025 % w/v, 24 hours post application
  pest or weed control at 0.00025 % strength: 0%
[1]; 24 h, Caterpillars, 0.0005 % w/v, 24 hours post application
  pest or weed control at 0.0005 % strength: 1 to 19%
[1]; 24 h, Caterpillars, 0.001 % w/v, 24 hours post application
  pest or weed control at 0.001 % strength: 1 to 19%
[1]; 24 h, Caterpillars, 0.002 % w/v, 24 hours post application
  pest or weed control at 0.002 % strength: 1 to 19%
[1]; 48 h, Caterpillars, 0.000125 % w/v, 48 hours post application
  pest or weed control at 0.000125 % strength: 1 to 19%
[1]; 48 h, Caterpillars, 0.00025 % w/v, 48 hours post application
  pest or weed control at 0.00025 % strength: 1 to 19%
[1]; 48 h, Caterpillars, 0.0005 % w/v, 48 hours post application
  pest or weed control at 0.0005 % strength: 1 to 19%
[1]; 48 h, Caterpillars, 0.001 % w/v, 48 hours post application
  pest or weed control at 0.001 % strength: 1 to 19%
[1]; 48 h, Caterpillars, 0.002 % w/v, 48 hours post application
  pest or weed control at 0.002 % strength: 0%

## O=C(CSc1ccc(C2=NOC(c3cc(Cl)cc(Cl)c3)(C(F)(F)F)C2)s1)NCC(F)(F)F (stereo not drawn) [Compound 19, 2-[[5-[5-(3,5-dichlorophenyl)-5-(trifluoromethyl)-4H-isoxazol-3-yl]-2-thienyl]sulfanyl]-N-(2,2,2-trifluoroethyl)acetamide]
aphids, Myzus persicae; 24 h
  pest or weed control at 0.000125 % strength: 20 to 39%
  pest or weed control at 0.00025 % strength: 1 to 19%
  pest or weed control at 0.0005 % strength: 1 to 19%
  pest or weed control at 0.001 % strength: 20 to 39%
  pest or weed control at 0.002 % strength: 1 to 19%
aphids, Myzus persicae; 48 h
  pest or weed control at 0.000125 % strength: 40 to 59%
  pest or weed control at 0.00025 % strength: 20 to 39%
  pest or weed control at 0.0005 % strength: 20 to 39%
  pest or weed control at 0.001 % strength: 40 to 59%
  pest or weed control at 0.002 % strength: 1 to 19%
[1]; 24 h
  pest or weed control at 0.000125 % strength: 0%
  pest or weed control at 0.00025 % strength: 0%
  pest or weed control at 0.0005 % strength: 1 to 19%
  pest or weed control at 0.001 % strength: 1 to 19%
  pest or weed control at 0.002 % strength: 1 to 19%
[1]; 48 h
  pest or weed control at 0.000125 % strength: 1 to 19%
  pest or weed control at 0.00025 % strength: 1 to 19%
  pest or weed control at 0.0005 % strength: 1 to 19%
  pest or weed control at 0.001 % strength: 1 to 19%
  pest or weed control at 0.002 % strength: 1 to 19%
